Experimental data reported in patent US20230322767A1, “ARYL SUBSTITUTED PYRROLO-PYRIDINONES AND THERAPEUTIC USES THEREOF” (Bayer Aktiengesellschaft, priority 2020, published 2023).
Where two headings read alike, the source gives them in different places.

How the values were obtained:
Format in all cases: biochemical
[1] = biological target: CSNK1D (Homo sapiens (Human), UniProt P48730); assay: CSNK1D Assay (ADP-Glo, 1 μM ATP); conditions: median, read-out: CSNK1D IC50 [mol/l] (median)
How it was run: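 Enzyme preincubated with compound 15 min at 22° C in 50 mM HEPES pH 7.5 buffer with 10 mM MgCl2, 1 mM DTT; kinase reaction run at 1 μM ATP with biotinylated peptide substrate. ADP formed was detected by ADP-Glo luminescence as the measure of activity.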

[2] = biological target: CSNK1A1 (Homo sapiens (Human), UniProt P48729); assay: CSNK1A1 Assay 2 (ADP-Glo, 1 μM ATP); conditions: median, read-out: CSNK1A1 Assay 2 IC50 [mol/l] (median)
How it was run: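 Enzyme (~0.0375 ng/μL) preincubated 15 min at 22° C with compound in HEPES pH 7.5 buffer, then reacted with 1 μM ATP and biotin-Ahx-KRRRAL-pS-VASLPGL peptide. ADP product measured by ADP-Glo luminescence after 1 h ATP depletion and 1 h detection at 22° C.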

[3] = biological target: wild-type Epidermal Growth Factor Receptor (EGFR) (Homo sapiens (Human), UniProt P00533); assay: WT-EGFR Kinase Assay (TR-FRET, 2 mM ATP)
How it was run: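 GST-tagged human EGFR (R669–A1210, Sf9-expressed) preincubated 15 min at 22° C with compound in pH 7.0 Hepes/MgCl2 buffer, then reacted at 2 mM ATP with a biotinylated peptide substrate. Phosphorylation detected by TR-FRET (streptavidin-XL665, Tb-cryptate anti-phosphotyrosine) as the 665/620 nm emission ratio.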

[4] = EGFR Wildtyp 2 mM ATP IC50 [mol/l] (median), median or individual measurements
[5] = read-out: EGFR Wildtyp 2 mM ATP IC50 [mol/l] (median), median or individual measurements

Sequence of wild-type Epidermal Growth Factor Receptor (EGFR) (P00533 669-1210): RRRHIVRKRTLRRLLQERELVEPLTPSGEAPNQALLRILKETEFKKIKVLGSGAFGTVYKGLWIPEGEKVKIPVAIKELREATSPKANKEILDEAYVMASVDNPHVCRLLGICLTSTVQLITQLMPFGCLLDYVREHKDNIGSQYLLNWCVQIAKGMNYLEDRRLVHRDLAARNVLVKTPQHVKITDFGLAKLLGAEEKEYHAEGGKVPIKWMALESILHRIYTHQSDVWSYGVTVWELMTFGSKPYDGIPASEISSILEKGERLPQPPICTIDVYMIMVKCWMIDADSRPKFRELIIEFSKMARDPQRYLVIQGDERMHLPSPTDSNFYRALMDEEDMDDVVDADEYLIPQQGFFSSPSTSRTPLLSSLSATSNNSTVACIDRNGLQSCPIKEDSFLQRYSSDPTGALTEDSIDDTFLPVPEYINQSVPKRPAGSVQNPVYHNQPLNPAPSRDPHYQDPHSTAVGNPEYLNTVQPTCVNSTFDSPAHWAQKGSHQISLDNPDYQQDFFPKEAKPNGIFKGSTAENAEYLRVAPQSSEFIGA
Sequence of CSNK1A1 (P48729 whole entry): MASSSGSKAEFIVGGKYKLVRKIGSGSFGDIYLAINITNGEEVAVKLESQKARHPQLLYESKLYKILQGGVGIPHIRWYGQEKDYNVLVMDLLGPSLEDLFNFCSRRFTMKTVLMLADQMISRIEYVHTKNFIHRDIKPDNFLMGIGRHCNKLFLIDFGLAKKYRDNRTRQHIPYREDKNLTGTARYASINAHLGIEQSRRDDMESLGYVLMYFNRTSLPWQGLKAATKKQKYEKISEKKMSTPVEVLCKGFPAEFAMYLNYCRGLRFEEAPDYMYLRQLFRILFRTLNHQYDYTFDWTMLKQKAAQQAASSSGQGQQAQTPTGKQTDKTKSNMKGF
Sequence of CSNK1D (P48730 whole entry): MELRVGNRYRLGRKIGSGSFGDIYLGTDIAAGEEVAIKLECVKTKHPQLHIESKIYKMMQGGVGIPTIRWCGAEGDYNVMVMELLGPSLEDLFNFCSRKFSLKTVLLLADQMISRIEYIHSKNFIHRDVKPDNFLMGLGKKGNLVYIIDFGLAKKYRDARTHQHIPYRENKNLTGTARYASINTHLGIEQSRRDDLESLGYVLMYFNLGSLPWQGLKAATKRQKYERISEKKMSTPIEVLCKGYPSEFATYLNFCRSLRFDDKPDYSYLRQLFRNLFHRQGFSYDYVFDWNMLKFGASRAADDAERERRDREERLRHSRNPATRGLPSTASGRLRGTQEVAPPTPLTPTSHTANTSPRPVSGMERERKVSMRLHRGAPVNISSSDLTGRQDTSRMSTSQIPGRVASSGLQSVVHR

Row | SMILES | IC50 [1] | IC50 [2] | IC50 [3, 4] | IC50 [3, 5]
1 | Cn1cc(CC(F)F)c2[nH]c(-c3ccnc(NC(=O)C(CC(F)F)c4ccc(F)cc4)c3)c(-c3ccccc3)c2c1=O (single isomer, unassigned) [Example 149, N-{4-[7-(2,2-difluoroethyl)-5-methyl-4-oxo-3-phenyl-4,5-dihydro-1H-pyrrolo[3,2-c]pyridin-2-yl]pyridin-2-yl}-4,4-difluoro-2-(4-fluorophenyl)butanamide] | 3.8 nM | 3.7 nM | > 20000 nM | –
2 | CC(C(=O)Nc1cc(-c2[nH]c3c(c2-c2ccccc2)C(=O)N(C)CC3)ccn1)c1ccncc1 (single isomer, unassigned) [Example 155, N-[4-(5-methyl-4-oxo-3-phenyl-4,5,6,7-tetrahydro-1H-pyrrolo[3,2-c]pyridin-2-yl)pyridin-2-yl]-2-(pyridin-4-yl)propanamide] | 2 nM | 1.3 nM | > 20000 nM | –
3 | O=C(Nc1cc(-c2[nH]c3ccn(C4CC4)c(=O)c3c2-c2ccccc2)ccn1)C(CC(F)F)c1ccc(F)cc1 (single isomer, unassigned) [Example 157, (2R or S)—N-[4-(5-cyclopropyl-4-oxo-3-phenyl-4,5-dihydro-1H-pyrrolo[3,2-c]pyridin-2-yl)pyridin-2-yl]-4,4-difluoro-2-(4-fluorophenyl)butanamide] | 2.3 nM | 2 nM | > 20000 nM | –
4 | O=C(Nc1cc(-c2[nH]c3ccn(C4CC4)c(=O)c3c2-c2ccccc2)ccn1)C(CC(F)F)c1ccc(F)cc1 (single isomer, unassigned) [Example 158, (2R or S)—N-[4-(5-cyclopropyl-4-oxo-3-phenyl-4,5-dihydro-1H-pyrrolo[3,2-c]pyridin-2-yl)pyridin-2-yl]-4,4-difluoro-2-(4-fluorophenyl)butanamide] | 5.1 nM | 3.2 nM | – | > 20000 nM
5 | CC(C(=O)Nc1cc(-c2[nH]c3ccn(C)c(=O)c3c2-c2ccc(F)cc2)ccn1)c1ccc(F)cc1 (single isomer, unassigned; (+)) [Example 102, (+)-2-(4-fluorophenyl)-N-{4-[3-(4-fluorophenyl)-5-methyl-4-oxo-4,5-dihydro-1H-pyrrolo[3,2-c]pyridin-2-yl]pyridin-2-yl}propanamide] | 2 nM | 1 nM | 875 nM | –
6 | Cn1ccc2[nH]c(-c3ccnc(NC(=O)C(CC(F)F)c4ccc(F)cc4)c3)c(-c3ccc(F)cc3)c2c1=O (single isomer, unassigned; (+)) [Example 109, (+)-4,4-difluoro-2-(4-fluorophenyl)-N-{4-[3-(4-fluorophenyl)-5-methyl-4-oxo-4,5-dihydro-1H-pyrrolo[3,2-c]pyridin-2-yl]pyridin-2-yl}butanamide] | 3.7 nM | 2.1 nM | 3850 nM | –
7 | O=C(Nc1cc(-c2[nH]c3ccn(C4CC4)c(=O)c3c2-c2ccc(F)cc2)ccn1)C(CC(F)F)c1ccc(F)cc1 (single isomer, unassigned; (+)) [Example 136, (+)-N-{4-[5-cyclopropyl-3-(4-fluorophenyl)-4-oxo-4,5-dihydro-1H-pyrrolo[3,2-c]pyridin-2-yl]pyridin-2-yl}-4,4-difluoro-2-(4-fluorophenyl)butanamide] | 2.1 nM | 3.1 nM | – | > 20000 nM
8 | CN1CC(C)(C)c2[nH]c(-c3ccnc(NC(=O)C(CC(F)F)c4ccc(F)cc4)c3)c(-c3ccccc3)c2C1=O (single isomer, unassigned; (+)) [Example 152, (+)-4,4-difluoro-2-(4-fluorophenyl)-N-[4-(5,7,7-trimethyl-4-oxo-3-phenyl-4,5,6,7-tetrahydro-1H-pyrrolo[3,2-c]pyridin-2-yl)pyridin-2-yl]butanamide] | 4.5 nM | 4.3 nM | – | > 20000 nM
9 | CC(C(=O)Nc1cc(-c2[nH]c3ccn(C)c(=O)c3c2-c2ccc(F)cc2)ccn1)c1ccc(F)cc1 (single isomer, unassigned; (-)) [Example 101, (−)-2-(4-fluorophenyl)-N-{4-[3-(4-fluorophenyl)-5-methyl-4-oxo-4,5-dihydro-1H-pyrrolo[3,2-c]pyridin-2-yl]pyridin-2-yl}propanamide] | 5.6 nM | 12 nM | 32.4 nM | –
10 | Cn1ccc2[nH]c(-c3ccnc(NC(=O)C(CC(F)F)c4ccc(F)cc4)c3)c(-c3ccc(F)cc3)c2c1=O (single isomer, unassigned; (-)) [Example 108, (−)-4,4-difluoro-2-(4-fluorophenyl)-N-{4-[3-(4-fluorophenyl)-5-methyl-4-oxo-4,5-dihydro-1H-pyrrolo[3,2-c]pyridin-2-yl]pyridin-2-yl}butanamide] | 9.4 nM | 15 nM | 663 nM | –
11 | O=C(Nc1cc(-c2[nH]c3ccn(C4CC4)c(=O)c3c2-c2ccc(F)cc2)ccn1)C(CC(F)F)c1ccc(F)cc1 (single isomer, unassigned; (-)) [Example 135, (−)-N-{4-[5-cyclopropyl-3-(4-fluorophenyl)-4-oxo-4,5-dihydro-1H-pyrrolo[3,2-c]pyridin-2-yl]pyridin-2-yl}-4,4-difluoro-2-(4-fluorophenyl)butanamide] | 5.4 nM | 7.8 nM | > 20000 nM | –
12 | CN1CC(C)(C)c2[nH]c(-c3ccnc(NC(=O)C(CC(F)F)c4ccc(F)cc4)c3)c(-c3ccccc3)c2C1=O (single isomer, unassigned; (-)) [Example 151, (−)-4,4-difluoro-2-(4-fluorophenyl)-N-[4-(5,7,7-trimethyl-4-oxo-3-phenyl-4,5,6,7-tetrahydro-1H-pyrrolo[3,2-c]pyridin-2-yl)pyridin-2-yl]butanamide] | 19 nM | 17 nM | > 20000 nM | –
13 | CN1CCc2[nH]c(-c3ccnc(NC(=O)Cc4ccc(F)cc4)c3)c(-c3ccccc3)c2C1=O [Example 1, 2-(4-fluorophenyl)-N-[4-(5-methyl-4-oxo-3-phenyl-4,5,6,7-tetrahydro-1H-pyrrolo[3,2-c]pyridin-2-yl)pyridin-2-yl]acetamide] | 3.7 nM | 1.3 nM | – | > 20000 nM
14 | CN1CC(CC2CC2)c2[nH]c(-c3ccnc(NC(=O)C(CC(F)F)c4ccc(F)cc4)c3)c(-c3ccc(F)cc3)c2C1=O (stereo not drawn) [Example 64, N-{4-[7-(cyclopropylmethyl)-3-(4-fluorophenyl)-5-methyl-4-oxo-4,5,6,7-tetrahydro-1H-pyrrolo[3,2-c]pyridin-2-yl]pyridin-2-yl}-4,4-difluoro-2-(4-fluorophenyl)butanamide] | 4.8 nM | 8.5 nM | – | > 20000 nM
15 | O=C(Cc1ccc(F)cc1)Nc1cc(-c2[nH]c3c(c2-c2ccccc2)C(=O)NCC3)ccn1 [Example 72, 2-(4-fluorophenyl)-N-[4-(4-oxo-3-phenyl-4,5,6,7-tetrahydro-1H-pyrrolo[3,2-c]pyridin-2-yl)pyridin-2-yl]acetamide] | 1.3 nM | 0.66 nM | – | > 20000 nM
16 | O=C(Cc1ccc(F)cc1)Nc1cc(-c2[nH]c3cc[nH]c(=O)c3c2-c2ccccc2)ccn1 [Example 73, 2-(4-fluorophenyl)-N-[4-(4-oxo-3-phenyl-4,5-dihydro-1H-pyrrolo[3,2-c]pyridin-2-yl)pyridin-2-yl]acetamide] | 5.4 nM | 1.9 nM | – | > 20000 nM
